What was measured:
[1] = target: human recombinant histamine H1 receptor (Homo sapiens, UniProt P35367); experiment: Histamine H1 radioligand binding ([3H]Pyrilamine); details: compound at 0.1 μM; 1.2 nM [3H]Pyrilamine; read-out: Binding data (Percentage inhibition) Histamine H1 (0.1 μM)
Procedure: To evaluate in radioligand binding assays the activity of compounds of the invention, human recombinant histamine H1 receptor expressed in Chinese hamster ovary (CHO) cells (De Backer, M. et al, Biochem. Biophys. Res. Comm. 197(3):1601, 1993) in a modified Tris-HCl buffer (50 mM Tris-HCl, pH 7.4, 2 mM MgCl2, 100 mM NaCl, 250 mM Sucrose) was used. Compounds of the invention were incubated with 1.2 nM [^3H]Pyrilamine for 180 min at 25° C. Non-specific binding was estimated in the presence of 1 μM Pyrilamine. Receptor proteins were filtered and washed, the filters were then counted to determine [^3H]Pyrilamine specifically bound. Compounds were screened at 1 μM or lower, using 1% DMSO as vehicle. Biochemical assay results are presented as the percent inhibition of specific binding in Table 2.

[2] = target: T1, rat adrenergic α1A receptor (Rattus norvegicus, UniProt P43140); experiment: Adrenergic α1A radioligand binding ([3H]Prazosin); design: species or system Wistar Rat; details: compound at 0.1 μM; read-out: Percentage inhibition of ligand binding, Adrenergic (0.1 μM) a1A
T1 construct: rat adrenergic α1A receptor obtained from Wistar Rat submaxillary glands; from tissue; host or cells: Wistar Rat submaxillary glands
T1 sequence (P43140 1-466): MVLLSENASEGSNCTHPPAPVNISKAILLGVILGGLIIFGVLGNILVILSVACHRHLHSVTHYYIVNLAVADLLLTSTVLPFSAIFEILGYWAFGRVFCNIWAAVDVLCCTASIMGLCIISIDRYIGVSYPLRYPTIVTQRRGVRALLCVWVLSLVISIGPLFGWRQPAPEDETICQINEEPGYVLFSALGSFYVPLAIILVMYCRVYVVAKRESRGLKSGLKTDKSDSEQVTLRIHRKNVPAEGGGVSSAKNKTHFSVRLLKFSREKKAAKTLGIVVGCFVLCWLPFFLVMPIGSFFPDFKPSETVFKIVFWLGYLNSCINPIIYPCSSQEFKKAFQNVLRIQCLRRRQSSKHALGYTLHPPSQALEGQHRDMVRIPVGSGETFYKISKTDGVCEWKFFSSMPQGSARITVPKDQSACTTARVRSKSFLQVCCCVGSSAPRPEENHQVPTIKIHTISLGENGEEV
Procedure: To evaluate in radioligand binding assays the activity of compounds of the invention, rat adrenergic α1A receptor obtained from Wistar Rat submaxillary glands (Michel, A. et al, Br. J. Pharmacol. 98:883, 1989) in a modified Tris-HCl buffer (50 mM Tris-HCl buffer, pH 7.4, 0.5 mM EDTA) was used. Compounds of the invention were incubated with 0.25 nM [^3H]Prazosin for 60 min at 25° C. Non-specific binding was estimated in the presence of 10 μM phentolamine Receptor proteins were filtered and washed, the filters were then counted to determine [^3H]Prazosin specifically bound. Compounds of the invention were screened at 1 μM or lower, using 1% DMSO as vehicle. Biochemical assay results are presented as the percent inhibition of specific binding in Table 3.

[3] = target: T2, human recombinant serotonin (5-Hydroxytryptamine) 5-HT2A receptor (Homo sapiens, UniProt P28223); experiment: Serotonin 5-HT2A radioligand binding ([3H]Ketanserin); details: compound at 0.1 μM; read-out: Percentage inhibition of ligand binding, Serotonin (0.1 μM) 5-HT2A
T2 construct: expressed in transfected cells; host or cells: Chinese hamster ovary (CHO) K1 cells
T2 sequence (P28223 whole entry): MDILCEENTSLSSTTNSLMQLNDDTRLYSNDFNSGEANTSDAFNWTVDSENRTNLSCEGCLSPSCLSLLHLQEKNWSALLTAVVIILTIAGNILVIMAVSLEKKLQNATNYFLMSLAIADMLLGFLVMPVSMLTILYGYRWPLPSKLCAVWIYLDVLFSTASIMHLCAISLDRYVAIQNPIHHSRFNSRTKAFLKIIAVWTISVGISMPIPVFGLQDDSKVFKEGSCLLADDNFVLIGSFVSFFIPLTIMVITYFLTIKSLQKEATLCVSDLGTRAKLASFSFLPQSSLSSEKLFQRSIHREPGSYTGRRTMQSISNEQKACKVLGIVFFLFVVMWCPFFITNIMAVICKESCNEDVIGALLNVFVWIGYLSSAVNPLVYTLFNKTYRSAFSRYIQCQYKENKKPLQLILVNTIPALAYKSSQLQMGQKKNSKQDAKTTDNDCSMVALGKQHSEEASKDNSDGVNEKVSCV
Procedure: To evaluate in radioligand binding assays the activity of compounds of the invention, human recombinant serotonin (5-Hydroxytryptamine) 5-HT2A receptor expressed in Chinese hamster ovary (CHO) K1 cells (Bonhaus, D. et al, Br. J. Pharmacol. 115:622, 1995; Saucier, C. et al, J. Neurochem. 68:1998, 1997) in a 50 mM Tris-HCl buffer, pH 7.4, was used. Compounds of the invention were incubated with 0.5 nM [^3H]Ketanserin for 60 min at 25° C. Non-specific binding was estimated in the presence of 1 μM Mianserin. Receptor proteins were filtered and washed, the filters were then counted to determine [^3H]Ketanserin specifically bound. Compounds were screened at 1 μM or lower, using 1% DMSO as vehicle. Biochemical assay results are presented as the percent inhibition of specific binding in Table 4.

[4] = target: T3, human recombinant serotonin (5-Hydroxytryptamine) 5-HT5A receptor (Homo sapiens, UniProt P47898); experiment: Serotonin 5-HT5A radioligand binding ([3H]LSD); details: compound at 0.1 μM; read-out: Percentage inhibition of ligand binding, Serotonin (0.1 μM) 5-HT5A
T3 construct: expressed in transfected cells; host or cells: Chinese hamster ovary (CHO) K1 cells
T3 sequence (P47898 whole entry): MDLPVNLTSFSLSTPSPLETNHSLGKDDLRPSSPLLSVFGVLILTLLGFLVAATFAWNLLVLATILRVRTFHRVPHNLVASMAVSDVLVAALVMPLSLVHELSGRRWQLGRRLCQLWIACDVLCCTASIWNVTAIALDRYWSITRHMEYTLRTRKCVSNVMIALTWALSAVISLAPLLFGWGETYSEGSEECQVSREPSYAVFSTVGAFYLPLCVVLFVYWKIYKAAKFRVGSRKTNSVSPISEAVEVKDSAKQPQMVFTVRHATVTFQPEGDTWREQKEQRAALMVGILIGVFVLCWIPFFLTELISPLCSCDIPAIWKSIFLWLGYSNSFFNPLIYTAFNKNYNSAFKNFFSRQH
Procedure: To evaluate in radioligand binding assays the activity of compounds of the invention, human recombinant serotonin (5-Hydroxytryptamine) 5-HT5A receptor expressed in Chinese hamster ovary (CHO) K1 cells (Rees, S. et al, FEBS Lett. 355:242, 1994) in a modified Tris-HCl buffer (50 mM Tris-HCl, pH 7.4, 10 mM MgCl2, 0.5 mM EDTA) was used. Compounds of the invention were incubated with 1.7 nM [^3H]Lysergic acid diethylamide (LSD) for 60 min at 37° C. Non-specific binding was estimated in the presence of 100 μM Serotonin (5-HT). Receptor proteins were filtered and washed, the filters were counted to determine [^3H]LSD specifically bound. Compounds were screened at 1 μM or lower, using 1% DMSO as vehicle. Biochemical assay results are presented as the percent inhibition of specific binding in Table 4.

Chain of human recombinant histamine H1 receptor (P35367 whole entry): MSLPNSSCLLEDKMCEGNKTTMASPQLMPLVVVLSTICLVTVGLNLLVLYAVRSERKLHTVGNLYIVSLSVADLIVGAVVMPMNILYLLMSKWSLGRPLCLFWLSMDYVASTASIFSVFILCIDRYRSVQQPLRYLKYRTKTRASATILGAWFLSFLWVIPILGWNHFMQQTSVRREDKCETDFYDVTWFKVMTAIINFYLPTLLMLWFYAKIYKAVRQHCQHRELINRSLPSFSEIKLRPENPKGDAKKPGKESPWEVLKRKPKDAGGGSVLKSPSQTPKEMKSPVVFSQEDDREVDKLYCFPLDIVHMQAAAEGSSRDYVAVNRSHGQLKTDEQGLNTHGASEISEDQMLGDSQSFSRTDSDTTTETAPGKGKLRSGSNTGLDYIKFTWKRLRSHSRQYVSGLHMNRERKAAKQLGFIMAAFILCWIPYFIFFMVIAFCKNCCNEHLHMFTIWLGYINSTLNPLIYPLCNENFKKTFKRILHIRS

Compound | inhibition at 0.1 µM [1] [%] | inhibition at 0.1 µM [2] [%] | inhibition at 0.1 µM [3] [%] | inhibition at 0.1 µM [4] [%]
C#CCC1(C)CN(C)Cc2c1n(C)c1ccc(C)cc21 (centres unmarked) [Compound 47, 2,4,5,8-tetramethyl-4-(prop-2-ynyl)-2,3,4,5-tetrahydro-1H-pyrido[4,3-b]indole] | 49 | 16 | 32 | 34
Cc1ccc2c(c1)c1c(n2C)C(C)(CCc2nc(-c3ccccc3)cs2)CN(C)C1 (centres unmarked) [Compound 48] | 89 | 34 | 39 | -3

— patent publication US20130172320A1, “PYRIDO [4,3-B] INDOLE AND PYRIDO [3,4-B] INDOLE DERIVATIVES AND METHODS OF USE” (priority 2010, published 2013)
